Like-named read-outs stand apart in the source and are kept apart here.
B1: Human MnSOD: human manganese superoxide dismutase enzyme (protein, UniProt P04179 25-222, looked up)
Superoxide dismutase [Mn], …: KHSLPDLPYDYGALEPHINAQIMQLHHSKHHAAYVNNLNVTEEKYQEALAKGDVTAQIALQPALKFNGGGHINHSIFWTNLSPNGGGEPKGELLEAIKRDFGSFDKFKEKLTAASVGVQGSGWGWLGFNKERGHLQIAACPNQDPLQGTTGLIPLLGIDVWEHAYYLQYKNVRPDYLKAIWNVINWENVTERYMACKK
B2: Escherichia coli MnSOD: manganese superoxide dismutase enzyme of Escherichia coli (protein, UniProt P00448 2-206, looked up)
Superoxide dismutase [Mn]: SYTLPSLPYAYDALEPHFDKQTMEIHHTKHHQTYVNNANAALESLPEFANLPVEELITKLDQLPADKKTVLRNNAGGHANHSLFWKGLKKGTTLQGDLKAAIERDFGSVDNFKAEFEKAAASRFGSGWAWLVLKGDKLAVVSTANQDSPLMGEAISGASGFPIMGLDVWEHAYYLKFQNRRPDYIKEFWNVVNWDEAAARFAAKK

What was measured:
superoxide ion [1] = experiment: McCord-Fridovich assay (SOD activity, inhibition of ferricytochrome c reduction by superoxide ion); type: biochemical
Text: The McCord–Fridovich assay was used to measure the SOD activity of the Mn^2+ complexes of our ligands formed in situ. This assay utilizes the reaction of xanthine oxidase with xanthine to produce superoxide ion which, in turn, reduces ferricytochrome C. The reduction of ferricytochrome C is monitored at 550 nm in the absence and presence of SOD mimics to determine the concentration at which the complexes inhibit ferricytochrome C reduction by 50%, their IC50 value. […] Stock solutions of cytochrome C, xanthine, xanthine oxidase, catalase, and MnCl2 were also prepared with this buffer. The temperature of the reactions was held constant at 25 °C using a Peltier attachment to the spectrophotometer. For a typical reaction, a solution was prepared in a cuvette containing 50 μM cytochrome c, 50 μM xanthine, 30 μg/mL catalase, and enough buffer to provide a total of 3 mL of solution. Approximately 100 μg/mL xanthine oxidase was added to initiate the reaction. This quantity was adjusted to give an initial velocity of 0.025–0.030 ΔAbs550nm/min. The reaction was monitored at 550 nm. After 2.5 min, a quantity of MnCl2 was added and the absorbance was monitored for another 2.5 min. Reactions were run in triplicate for each different concentration of Mn^2+ examined, and percent inhibition was calculated as %I=(V0−Vf/V0)×100% , where V 0 and V f are the initial and final velocities respectively. Plots of %I vs [Mn^2+] were used to determine the IC50 for each complex. To verify the fidelity of the McCord-Fridovich assay, the production of urate by the xanthine/xanthine oxidase reaction at 290 nm in the absence and presence of each complex, and no inhibition at a concentration higher than the IC50 was observed.
The SOD-like activity of Mn^2+ complexes of the tripodal ligands was evaluated using the McCord-Fridovich assay. This is an indirect assay that examines the reduction of ferricytochrome c by superoxide ion in the absence and presence of SOD or potential SOD mimetic compounds. The reaction of xanthine with xanthine oxidase provides a source of superoxide ion for the assay, and the reduction of ferricytochrome c is monitored at 550 nm. Given their low to moderate aqueous stability, it was not possible to use preformed complexes for these assays since we would not expect them to remain intact at the micromolar concentrations employed. Instead, Mn^2+ complexes were formed in situ, in buffered, aqueous solution (pH 7.5), by combining the ligands with manganese(II) chloride. In each case, an excess of ligand was included to produce Mn^2+ complexation as close to 100% as possible, while avoiding solubility issues. Percent complexation of the complexes under these conditions has been estimated from the 1:1 [MnL]^2+ stability constants (βMnL) in Table , based on the ligand complex concentration employed and an Mn^2+ concentration close to the IC50 values of the complexes (0.1 μM). We note that, given the high concentrations of ligand present in our experiments, higher speciation complexes (e.g., [MnL2]^2+) may also be present in our reaction solutions, resulting from adventitious mono-or bidentate-coordination of an additional ligand. These types of species have been observed previously for Mn^2+ complexes with a related ligand (HPClNOL), where HPClNOL is the tripodal ligand {1-[bis(pyridine-2-ylmethyl)-amino]-3-chloropropan-2-ol}, yet in a 50:50, MeOH/H2O solution where overall complex stability is expected to be much higher. Since we cannot rule out higher speciation under the conditions of these in situ experiments, our use of the term Mn^2+ complexes is meant to indicate all [MnL]^2+ or [MnL x ]^2+ species present in reaction solutions here.
Percent inhibition plots for MnCl2 in both HEPES and phosphate buffer are provided in Supporting Information (Figures S35 and S36). […]

[2] = for Log βMnL (stability constant of the Mn^2+ complex) / pK aMnL(H2O) (acid dissociation constant of an associated aqua ligand) / Log Ka MnL(H2O) / Log bMnL: I = 0.10 M KCl; for Log βMnL (stability constant of the Mn^2+ complex) / pK aMnL(H2O) (acid dissociation constant of an associated aqua ligand): t = 25 °C; for conditional complex formation: McCord-Fridovich assay conditions, HEPES buffer pH 7.5, excess ligand, Mn^2+ 0.1 μM, estimated from βMnL; for Log Ka MnL(H2O) / Log bMnL: Table S35, t = 25°C; for % Complex (McCord-Fridovich assays): Table S37, ligand 0.001 M (TMPA, DPEA, DPMEA) or 0.01 M (PDEA, PDMEA), MnCl2 0.1 µM, estimated from stability studies; for % Complex (complex formation under cyclic voltammetry conditions): ligand 0.001 M (TMPA) or 0.01 M, MnCl2 0.001 M, estimated from complex stability studies
[3] = Potentiometric titration of the acidified ligands (protonation constants); details: I = 0.10 M KCl; for Log βLH1 (protonation constant of the ligand) / Log βLH2 (protonation constant of the ligand): t = 25 °C; for Log Ka1 / Log Ka2: Table S35, t = 25°C
superoxide ion [4] = details: reported previously; reference not given; read-out: IC50 (SOD activity); cited from earlier work
[5] = Cyclic voltammetry of Mn^2+ complexes formed in situ, Mn^III/Mn^II couple; type: physicochemical
Method: Cyclic voltammograms were recorded in 50 mM collidine buffer, pH 7.5, using an eDAQ 466 Integrated Potentiostat System with EChem software. Mn^2+ complexes were formed in situ in the presence of excess ligand to ensure a high percentage of complex formation (see Table S35 in Supporting Information) according to our stability studies vide infra. A glassy carbon working electrode, Ag/AgCl reference electrode, and Pt/Ti auxiliary electrode were employed. Prior to recording CVs, solutions were bubbled with nitrogen gas for 15 min to eliminate oxygen. CVs were then recorded at a scan rate of 100 mV/s.
Cyclic voltammograms of the Mn^2+ complexes of TMPA, DPEA, DPMEA, PDEA, and PDMEA, prepared in situ in buffered aqueous solution (pH 7.5), were recorded vs Ag/AgCl to determine the reduction potential (E 1/2) for the Mn^III/Mn^II couple. A cyclic voltammogram of MnCl2 in the buffered solution was also recorded for the purpose of comparison. Collidine buffer was employed for analysis since it tends to permit visualization of electrochemical waves for Mn^2+ complexes with pyridine-containing ligands, where other solvents/buffers can lead to ill-defined or absent features for these species. Ligand and MnCl2 concentrations were chosen to ensure near complete (N4 and N3O), or substantial (N2O2) complex formation according to our stability studies. For [MnTMPA]^2+, an equimolar amount of TMPA and MnCl2 were used (0.001 M), and for all other complexes, ligand concentration (0.01 M) was 10-fold the concentration of MnCl2 (0.001 M). In each case, […] waves were recorded where the difference in oxidation and reduction peak positions (ΔE p) is greater than 59 mV. Redox potential values (E 1/2), determined from the average of the positions of the oxidation and reduction peaks, are given in Table along with ΔE p values. The distinct positions of these peaks, relative to those of MnCl2, further corroborate [MnL]^2+ aqueous complex formation of the N4, N3O, and N2O2 ligands employed. Voltammograms can be found in Supporting Information (Figures S29–S34 ).

[6] = given for comparison to the complexes; reference not given; cited from earlier work
[7] = HEPES buffer, pH 7.5, measured IC50 corrected for expected percent complex formation, read-out: apparent IC50
[8] = Mn^2+ complexes formed in situ with excess ligand, 50 mM HEPES buffer, pH 7.5, 25 °C, concentration as Mn^2+, read-out: measured IC50
[9] = collidine buffer, pH 7.5, scan rate 100 mV/s, vs Ag/AgCl
[10] = HEPES buffer, pH 7.5, estimated using kcat=kcytc[cytc]/IC50, k cytc = 2.6 × 10^5 M^–1 s^–1, [cyt c] = 5 × 10^–5 M

Molecule	IC50 (superoxide ion [1]; [7]) [nM]	IC50 (superoxide ion [1]; [8]) [nM]	Log βMnL (stability constant of the Mn^2+ complex) [2]	pK aMnL(H2O) (acid dissociation constant of an associated aqua ligand) [2]	conditional complex formation [2] [%]	Log Ka MnL(H2O) [2]	Log bMnL [2]	% Complex (McCord-Fridovich assays) [2] [%]	% Complex (complex formation under cyclic voltammetry conditions) [2] [%]	Log βLH1 (protonation constant of the ligand) [3]	Log βLH2 (protonation constant of the ligand) [3]	Log Ka1 [3]	Log Ka2 [3]	other results
OCCN(Cc1ccccn1)Cc1ccccn1 [DPEA, N,N-Bis(2-pyridylmethyl)ethanolamine]	140	150	4.12(1)	5.63(1)	92	-5.63(1)	4.12(1)	92	98	6.10(1)	9.40(3)	6.10(1)	9.40(3)	
COCCN(Cc1ccccn1)Cc1ccccn1 [DPMEA, 2-Methoxy-N,N-bis(pyridin-2-ylmethyl)ethan-1-amine]	480	600	3.71(2)	6.07(2)	80	-6.07(2)	3.71(2)	80	97	6.19(1)	9.81(1)	6.19(1)	9.81(1)	
OC(CCl)CN(Cc1ccccn1)Cc1ccccn1.[Cl][Mn][Cl] (stereo not shown) [Mn(HPClNOL)Cl2]														IC50 (superoxide ion [4]): 350 nM
[Cl][Mn][Cl] [MnCl2, manganese(II) chloride, reference compound]		13000												ΔE p ([5]; collidine buffer, pH 7.5, scan rate 100 mV/s): 0.285; E oxid [5, 9]: 0.415 V; E red [5, 9]: 0.130 V; E 1/2 vs Ag/AgCl ([5]; collidine buffer, pH 7.5, average of oxidation and reduction peak positions): 0.273 V; E 1/2 vs SHE ([5]; converted using E 1/2 SHE = E 1/2 Ag/AgCl + 0.197 V): 0.470 V; k cat (superoxide ion [1]; 50 mM phosphate buffer, pH 7.5, estimated from IC50): 2.8 × 10^7 M^–1 s^–1; IC50 (superoxide ion [1]; 50 mM phosphate buffer, pH 7.5, read-out: measured IC50): 470 nM; SOD activity in the range of the IC50 values of the complexes (superoxide ion [1]; HEPES buffer): do not observe measurable SOD activity; k cat (superoxide ion [1]; [10]): 1.0 × 10^6 M^–1 s^–1
OCCN(CCO)Cc1ccccn1 [PDEA, 2,2′-((Pyridin-2-ylmethyl)azanediyl)bis(ethan-1-ol)]	70	110		7.00(2)	66	-7.00(2)		66	66	6.78(1)		6.78(1)		
COCCN(CCOC)Cc1ccccn1 [PDMEA, 2-Methoxy-N-(2-methoxyethyl)-N-(pyridin-2-ylmethyl)ethan-1-amine]	790	1300	2.32(2)	6.6(1)	61	-6.6(1)	2.32(2)	61	61	6.90(2)		6.90(2)		k cat (superoxide ion [1]; [10]): 1.6 × 10^7 M^–1 s^–1
c1ccc(CN(Cc2ccccn2)Cc2ccccn2)nc1 [TMPA, Tris(pyridin-2-ylmethyl)amine]	300	300	5.24(2)	4.98(3)	99	-4.98(3)	5.24(2)	99	93	6.01(1)	10.08(1)	6.01(1)	10.08(1)	
B1														E 1/2 vs SHE of MnSOD enzymes [6]: 0.29 V
B2														E 1/2 vs SHE of MnSOD enzymes [6]: 0.40 V

— PMC12658643, “Effects of Ligand N and O Donor Content on the Structure, Aqueous Stability, and SOD Activity of a Series of Mn^2+ Complexes with Pyridine-Containing Tripodal Ligands” (ACS Omega, 2025)
